Experimental data reported in patent US9051417B2, “Method for solubilizing carboxylic acid-containing compound in hydrocarbon solvent” (Dow Global Technologies LLC, priority 2013, dated 2015).

Test: Solubility measurement of acid chlorides containing one carboxylic acid moiety in hydrocarbon solvents with and without trialkylphosphate additives (saturated solutions, proton NMR)
Type: physicochemical
Conditions: saturated solution
From the text: Many embodiments of the invention have been described and in some instances certain embodiments, selections, ranges, constituents, or other features have been characterized as being “preferred.” Characterizations of “preferred” features should in no way be interpreted as deeming such features as being required, essential or critical to the invention. For purposes of this description, the terms “acyl halide” and “acid halide” have the same meaning. While much of the description has focused upon acyl chlorides, non-chloride halides are also included. The term “solubility limit” refers to the point at which no additional amount of a constituent, (e.g. water, reaction product, hydrocarbon reactant) is miscible or dissolvable with the hydrocarbon solvent or solution, as measured at 20° C. and 101 kPa. Unless otherwise stated, all solubility related parameters are determined at 20° C. and 101 kPa.
Solubility measurement of acid chlorides containing one carboxylic acid moiety in hydrocarbon solvents with and without solubility enhancing additives:
Saturated solutions of sample acid chlorides containing carboxylic acid moieties were prepared in hydrocarbon solvents with and without the presence of trialkylphosphate additives by adding more sample than will dissolve in the solvent and decanting the saturated solvent from the undissolved precipitate. The saturated solutions were evaluated by proton NMR. Deuterated Isopar L is not commercially available, thus all spectra were acquired in the unlocked condition using regular Isopar L. Because of the very high proton concentration in running a non-deuterated solvent, 60° pulse and minimum receiver gain were used to avoid receiver overflow. A relaxation delay of 8 seconds was used for complete signal recovery between scans. The spectral width was set to 20 ppm and the center of the spectrum was set to 5 ppm. Depending on the concentrations of the species of interest, 64-256 scans were used for signal averaging.
The area of the Isopar L peaks between 0.75 and 2.0 ppm were measure and divided by 26 (which represents the average H's present in Isopar L, assuming a molecular formula of C12H26) and multiplied by 170.33, the formula weight of C12H26. The peak area of the aromatic acid chlorides containing carboxylates are between 8.9-9.2 ppm and are well resolved from the Isopar solvent. The integration of one of the assigned peaks (for example, the triplet of mono-hydrolyzed TMC at 9.0 ppm represents a single proton) was used to determine the relative weight of the sample in the Isopar L solvent. The integration is divided by the number of protons it represents and multiplied by the formula weight of the compound it represents (for example, the triplet of mono-hydrolyzed TMC at 9.0 ppm would be divided by 1 and multiplied by 247.03 g/mol). The wt % of mono-hydrolyzed TMC in the saturated solution is determined by dividing the value obtained for mono-hydrolyzed TMC by the value obtained for Isopar L.
In the presence of tributylphosphate (TBP), the Isopar L value must be corrected since a few protons of TBP cannot be resolved from the Isopar L peaks. This is done by integrating the —OCH2-protons of TBP which are well resolved at ˜4.05 ppm, dividing this value by 6 (for 6 protons). This area value is then multiplied by 21 (represents the three —CH2CH2CH3 that are unresolved from the Isopar L peak) and subtracted from the peak area of Isopar L.

[1] = solvent Isopar L, 20° C. and 101 kPa

Solubility (solvent 80/20 Isopar L/Toluene + 0.25 wt % TBP) [wt %] | Solubility (solvent 80/20 Isopar L/Toluene) [wt %] | Solubility (solvent Isopar L + 1 wt % TEHP) [wt %] | Solubility (solvent Isopar L + 1 wt % TEP) [wt %] | Solubility [1] [wt %] | Solubility (solvent Isopar L + 0.47 wt % TBP) [wt %] | SMILES
0.29 | 0.05 | 0.11 | 0.2 | 0.02 | – | O=C(O)c1cc(C(=O)Cl)cc(C(=O)Cl)c1 [mhTMC, mono-hydrolyzed trimesoyl chloride]
– | – | – | – | <0.02 | 0.29 | O=C(O)c1cccc(C(=O)Cl)c1 [mhIPC]
